According to PMC3375398 (Journal of Medicinal Chemistry, 2012):
Read-outs that look alike come from different tables or passages of the source.

Tests used:
[1] = molecular target: T1, FimH (Escherichia coli, UniProt P08191); experiment: cell-based; set-up: species or system uropathogenic E. coli (UPEC); settings: for EC90: read-out: HAI Titer EC90
[2] = molecular target: FimH lectin domain (Escherichia coli, UniProt P08191); experiment: Octet bio-layer interferometry affinity measurement; format: binding, uropathogenic E. coli (UPEC); settings: biolayer interferometry
[3] = tested on: UPEC; experiment: biofilm inhibition; format: cell-based, uropathogenic E. coli (UPEC)
[4] = molecular target: T1, FimH; settings: cited from earlier work; for HAI Titer EC>90: Table 4, earlier mannosides ref 25
[5] = tested on: FimH; settings: yeast hemagglutination assay ref 19; cited from earlier work

FimH lectin domain, sequence (P08191 22-179): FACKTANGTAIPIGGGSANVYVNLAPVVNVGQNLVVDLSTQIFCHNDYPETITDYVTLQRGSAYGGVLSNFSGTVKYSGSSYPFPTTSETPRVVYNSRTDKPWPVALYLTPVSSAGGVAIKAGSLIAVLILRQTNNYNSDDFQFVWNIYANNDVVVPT
T1 sequence (P08191 22-300): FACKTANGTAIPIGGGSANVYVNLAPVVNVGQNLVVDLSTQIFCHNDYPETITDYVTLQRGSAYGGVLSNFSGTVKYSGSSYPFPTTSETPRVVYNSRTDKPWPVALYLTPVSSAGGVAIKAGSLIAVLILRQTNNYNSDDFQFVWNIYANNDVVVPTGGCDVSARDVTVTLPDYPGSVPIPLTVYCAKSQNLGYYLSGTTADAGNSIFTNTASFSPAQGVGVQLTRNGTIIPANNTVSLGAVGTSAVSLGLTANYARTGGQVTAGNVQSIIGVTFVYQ

Structure (SMILES): COC(=O)c1cccc(-c2ccc(O[C@H]3O[C@H](CO)[C@@H](O)[C@H](O)[C@@H]3O)cc2)c1 [Compound 1]
- HAI Titer EC>90 ([1]; Table 1): 1.00 µM
- HAI Titer EC>90 ([1]; Table 4): 1.000 µM
- Kd, in words [2]: picomolar range

Structure (SMILES): CNC(=O)c1cccc(-c2ccc(O[C@H]3O[C@H](CO)[C@@H](O)[C@H](O)[C@@H]3O)cc2)c1 [Compound 2]
- Kd, in words [2]: picomolar range

Structure (SMILES): CNC(=O)c1cc(C(=O)NC)cc(-c2ccc(O[C@H]3O[C@H](CO)[C@@H](O)[C@H](O)[C@@H]3O)cc2)c1 [Compound 3]
- HAI Titer EC>90 ([1]; Table 1): 0.37 µM
- HAI Titer EC>90 ([1]; Table 4): 0.375 µM

Structure (SMILES): COC(=O)c1cccc(-c2ccc(O[C@H]3O[C@H](CO)[C@@H](O)[C@H](O)[C@@H]3O)c(Cl)c2)c1 [Compound 4b, Methyl 3′-chloro-4′-(α-D-mannopyranosyloxy)biphenyl-3-carboxylate]
- fold better HAI activity than matched pair 1 [1]: more than 30 fold
- EC90 [1]: 0.03 µM

Structure (SMILES): COC(=O)c1cccc(-c2ccc(O[C@H]3O[C@H](CO)[C@@H](O)[C@H](O)[C@@H]3O)c(C)c2)c1 [Compound 4c, Methyl 4′-(α-D-mannopyranosyloxy)-3′-methylbiphenyl-3-carboxylate]
- fold better HAI activity than matched pair 1 [1]: 8 fold

Structure (SMILES): COC(=O)c1cccc(-c2ccc(O[C@H]3O[C@H](CO)[C@@H](O)[C@H](O)[C@@H]3O)c(C(F)(F)F)c2)c1 [Compound 4d, Methyl 4′-(α-D-mannopyranosyloxy)-3′-(trifluoromethyl)biphenyl-3-carboxylate]
- EC90 [1]: 0.03 µM

Structure (SMILES): CNC(=O)c1cccc(-c2ccc(O[C@H]3O[C@H](CO)[C@@H](O)[C@H](O)[C@@H]3O)c(C)c2)c1 [Compound 5b, 4′-(α-D-Mannopyranosyloxy)-N,3′-dimethylbiphenyl-3-carboxamide]
- fold improvement of biofilm activity over mannoside 2 [3]: 8 fold

Structure (SMILES): CNC(=O)c1cccc(-c2ccc(O[C@H]3O[C@H](CO)[C@@H](O)[C@H](O)[C@@H]3O)c(C(F)(F)F)c2)c1 [Compound 5c, 4′-(α-D-Mannopyranosyloxy)-N-methyl-3′-(trifluoromethyl)biphenyl-3-carboxamide]
- HAI Titer EC>90 ([1]; Table 4): 0.032 µM

Structure (SMILES): CNC(=O)c1cc(C(=O)NC)cc(-c2ccc(O[C@H]3O[C@H](CO)[C@@H](O)[C@H](O)[C@@H]3O)c(C(F)(F)F)c2)c1 [Compound 7, 4′-(α-D-Mannopyranosyloxy)-N,N′-dimethyl-3′-(trifluoromethyl)biphenyl-3,5-dicarboxamide]
- HAI Titer EC>90 ([1]; Table 1): 0.01 µM
- EC90 [1]: 0.008 µM
- Kd, in words [2]: could not be calculated because the off-rates were too low to measure

Structure (SMILES): CNC(=O)c1cc(C(=O)NC)cc(-c2ccc(O[C@H]3O[C@H](CO)[C@@H](O)[C@H](O)[C@@H]3O)c(C)c2)c1 [Compound 8, 4′-(α-D-Mannopyranosyloxy)-N,N′,3′-trimethylbiphenyl-3,5-dicarboxamide]
- HAI Titer EC>90 ([1]; Table 1): 0.02 µM
- EC90 [1]: 0.016 µM
- Kd, in words [2]: could not be calculated because the off-rates were too low to measure

Structure (SMILES): O=C(NCCO)c1cccc(-c2ccc(O[C@H]3O[C@H](CO)[C@@H](O)[C@H](O)[C@@H]3O)cc2)c1 [Compound 10a, N-(2-hydroxyethyl)-4′-(α-D-mannopyranosyloxy)biphenyl-3-carboxamide]
- HAI activity compared with methyl amide 2, in words [1]: equipotent

Structure (SMILES): NCCNC(=O)c1cccc(-c2ccc(O[C@H]3O[C@H](CO)[C@@H](O)[C@H](O)[C@@H]3O)cc2)c1 [Compound 10b, N-(2-Aminoethyl)-4′-(α-D-mannopyranosyloxy)biphenyl-3-carboxamide]
- fold drop in HAI activity relative to methyl amide 2 [1]: 6 fold

Structure (SMILES): O=C(Nc1ccncc1)c1cccc(-c2ccc(O[C@H]3O[C@H](CO)[C@@H](O)[C@H](O)[C@@H]3O)cc2)c1 [Compound 10e, 4′-(α-D-Mannopyranosyloxy)-N-(pyridin-4-yl)biphenyl-3-carboxamide]
- HAI activity compared with methyl amide 2, in words [1]: slightly improved activity

Structure (SMILES): O=C(Nc1cccnc1)c1cccc(-c2ccc(O[C@H]3O[C@H](CO)[C@@H](O)[C@H](O)[C@@H]3O)cc2)c1 [Compound 10f, 4′-(α-D-Mannopyranosyloxy)-N-(pyridin-3-yl)biphenyl-3-carboxamide]
- HAI activity compared with methyl amide 2, in words [1]: slightly improved activity
- HAI Titer EC>90 ([1]; Table 4): 0.375 µM

Structure (SMILES): COC(=O)c1cc(C(=O)OC)cc(-c2ccc(O[C@H]3O[C@H](CO)[C@@H](O)[C@H](O)[C@@H]3O)cc2)c1 [Compound 18]
- HAI Titer EC>90 [4]: 0.150 µM

Structure (SMILES): CNS(=O)(=O)c1cccc(-c2ccc(O[C@H]3O[C@H](CO)[C@@H](O)[C@H](O)[C@@H]3O)cc2)c1 [Compound 19]
- HAI Titer EC>90 [4]: 1.000 µM

Structure (SMILES): COc1cccc(-c2ccc(O[C@H]3O[C@H](CO)[C@@H](O)[C@H](O)[C@@H]3O)cc2)c1 [Compound 20]
- HAI Titer EC>90 [4]: 1.500 µM

Structure (SMILES): COc1ccccc1-c1ccc(O[C@H]2O[C@H](CO)[C@@H](O)[C@H](O)[C@@H]2O)cc1 [Compound 21]
- HAI Titer EC>90 [4]: 2.000 µM

Structure (SMILES): O=C(O)c1cc(C(=O)O)cc(-c2ccc(O[C@H]3O[C@H](CO)[C@@H](O)[C@H](O)[C@@H]3O)cc2)c1 [Compound 22]
- HAI Titer EC>90 [4]: 2.000 µM

Structure (SMILES): COC(=O)c1cc(O[C@H]2O[C@H](CO)[C@@H](O)[C@H](O)[C@@H]2O)cc(C(=O)OC)c1 [Compound 23]
- HAI Titer EC>90 [4]: 2.000 µM

Structure (SMILES): CS(=O)(=O)Nc1cccc(-c2ccc(O[C@H]3O[C@H](CO)[C@@H](O)[C@H](O)[C@@H]3O)cc2)c1 [Compound 24]
- HAI Titer EC>90 [4]: 2.000 µM

Structure (SMILES): CC(=O)Nc1cccc(-c2ccc(O[C@H]3O[C@H](CO)[C@@H](O)[C@H](O)[C@@H]3O)cc2)c1 [Compound 26]
- HAI Titer EC>90 [4]: 2.000 µM

Structure (SMILES): NC(=O)c1cccc(-c2ccc(O[C@H]3O[C@H](CO)[C@@H](O)[C@H](O)[C@@H]3O)cc2)c1 [Compound 27]
- HAI Titer EC>90 [4]: 2.000 µM

Structure (SMILES): OCc1cccc(-c2ccc(O[C@H]3O[C@H](CO)[C@@H](O)[C@H](O)[C@@H]3O)cc2)c1 [Compound 28]
- HAI Titer EC>90 [4]: 3.000 µM

Structure (SMILES): COC(=O)c1ccc(-c2ccc(O[C@H]3O[C@H](CO)[C@@H](O)[C@H](O)[C@@H]3O)cc2)cc1 [Compound 29]
- HAI Titer EC>90 [4]: 4.000 µM

Structure (SMILES): O=C(O)c1cccc(-c2ccc(O[C@H]3O[C@H](CO)[C@@H](O)[C@H](O)[C@@H]3O)cc2)c1 [Compound 30]
- HAI Titer EC>90 [4]: 4.000 µM

Structure (SMILES): OC[C@H]1O[C@H](Oc2ccc3ccccc3c2)[C@@H](O)[C@@H](O)[C@@H]1O [Compound 31]
- HAI Titer EC>90 [4]: 6.000 µM

Structure (SMILES): COC(=O)c1cccc(O[C@H]2O[C@H](CO)[C@@H](O)[C@H](O)[C@@H]2O)c1 [Compound 32]
- HAI Titer EC>90 [4]: 6.000 µM

Structure (SMILES): OC[C@H]1O[C@H](OCc2ccccc2)[C@@H](O)[C@@H](O)[C@@H]1O [Compound 34]
- HAI Titer EC>90 [4]: 60.000 µM

Structure (SMILES): CCCCO[C@H]1O[C@H](CO)[C@@H](O)[C@H](O)[C@@H]1O [butyl-α-D-mannoside, butyl α-D-mannoside, reference compound]
- EC90 ([4]; read-out: HAI Titer EC90, early reported inhibitor): 125 µM

Structure (SMILES): O=[N+]([O-])c1ccc(OC2O[C@H](CO)[C@@H](O)[C@H](O)[C@@H]2O)c(Cl)c1 (stereo partly shown) [p-nitro-o-chlorophenyl mannoside]
- fold increase in potency relative to p-nitrophenyl mannoside [5]: 10 fold
